Reference: ChEMBL document CHEMBL1147586, “Discovery of a dihydropyrimidine series of molecules that selectively mimic the biological actions of calcitonin” (Bioorg Med Chem Lett, 2004)
Activity calls are given as the source filed them. The calls are words filed in the database; no cut-off is given here.

Key:
HEK293 [1] = assay: Fold induction of cAMP accumulation in HEK 293 cells at 75u M.; type: functional, Homo sapiens
HEK293 [2] = assay: In vitro cAMP accumulation in HEK 293 cells.; type: functional, cell-based; settings: Homo sapiens
[3] = Bioavailability in rat after intravenous administration at 1 mpk; type: ADME, organism-based; settings: in vivo, read-out: Bioavailabiility
[4] = Bioavailability in rat after peroral administration at 30 mpk; type: ADME, organism-based; settings: in vivo, po, 30 mg/kg, read-out: Bioavailabiility
monkey [5] = assay: Bioavailability in monkey after peroral administration at 10 mpk; settings: in vivo, po, 10 mg/kg, read-out: Bioavailabiility
monkey [6] = assay: Bioavailability in monkey after intravenous administration at 1 mpk; settings: in vivo, read-out: Bioavailabiility
HEK293 [7] = assay: Fold increase expressed as pmol of cAMP accumulation by the compound/basal level of cAMP produced at 25 uM in multiplex cell based assay; 5.1/4.4; type: functional, Homo sapiens
HEK293 [8] = assay: Fold increase expressed as pmol of cAMP accumulation by the compound/basal level of cAMP produced by CGRP1-7HEK cells at 25 uM; No activity; type: functional, cell-based; settings: Homo sapiens
HEK293 [9] = assay: Fold increase expressed as pmol of cAMP accumulation by the compound/basal level of cAMP produced by CTR-2HEK cells at 25 uM; type: functional, Homo sapiens
HEK293 [10] = assay: Fold increase expressed as pmol of cAMP accumulation by the compound/basal level of cAMP produced by EPTH1-1HEK cells at 25 uM; No activity; type: functional, cell-based; settings: Homo sapiens
HEK293 [11] = assay: Fold increase expressed as pmol of cAMP accumulation by the compound/basal level of cAMP produced by GIP-1HEK cells at 25 uM; No activity; type: functional, cell-based; settings: Homo sapiens
HEK293 [12] = assay: Fold increase expressed as pmol of cAMP accumulation by the compound/basal level of cAMP produced by GLP1-7HEK cells at 25 uM; No activity; type: functional, cell-based; settings: Homo sapiens
HEK293 [13] = assay: Fold increase expressed as pmol of cAMP accumulation by the compound/basal level of cAMP produced by GLU-1HEK cells at 25 uM; No activity; type: functional, cell-based; settings: Homo sapiens
Rattus norvegicus = assay: Bioavailability in rat after peroral administration at 100 mpk; type: functional, organism-based
[14] = Bioavailability in rat after intravenous administration at 2 mpk; type: ADME, organism-based; settings: in vivo, read-out: Bioavailabiility
HEK293 [15] = assay: Fold increase expressed as pmol of cAMP accumulation by the compound/basal level of cAMP produced at 25 uM in multiplex cell based assay; 4.7/4.0; type: functional, Homo sapiens
HEK293 [16] = assay: Fold increase expressed as pmol of cAMP accumulation by the compound/basal level of cAMP produced at 25 uM in multiplex cell based assay; 4.5/5.7; type: functional, Homo sapiens
HEK293 [17] = assay: Fold increase expressed as pmol of cAMP accumulation by the compound/basal level of cAMP produced at 25 uM in multiplex cell based assay; 4.7/3.2; type: functional, Homo sapiens

SMILES | Fold-induction (HEK293 [1]) | EC50 (HEK293 [2]) | other results
CC1=C(C(=O)OCc2ccccc2)C(c2cccc(C)c2)NC(=O)N1 (centres undefined) | 23 | 15 µM | –
COc1ccc(COC(=O)C2=C(C(C)C)NC(=O)NC2c2cccc(C)c2)cc1 (centres undefined) | 33 | 5.8 µM | –
CC(C)C[C@H](NC(=O)[C@H](CCCCN)NC(=O)CNC(=O)[C@H](CC(C)C)NC(=O)[C@@H](NC(=O)[C@@H]1CSSC[C@H](N)C(=O)N[C@@H](CO)C(=O)N[C@@H](CC(N)=O)C(=O)N[C@@H](CC(C)C)C(=O)N[C@@H](CO)C(=O)N[C@@H]([C@@H](C)O)C(=O)N1)C(C)C)C(=O)N[C@@H](CO)C(=O)N[C@@H](CCC(N)=O)C(=O)N[C@@H](CCC(=O)O)C(=O)N[C@@H](CC(C)C)C(=O)N[C@@H](Cc1c[nH]cn1)C(=O)N[C@@H](CCCCN)C(=O)N[C@@H](CC(C)C)C(=O)N[C@@H](CCC(N)=O)C(=O)N[C@H](C(=O)N[C@@H](Cc1ccc(O)cc1)C(=O)N1CCC[C@H]1C(=O)N[C@@H](CCCNC(=N)N)C(=O)N[C@H](C(=O)N[C@@H](CC(N)=O)C(=O)N[C@H](C(=O)NCC(=O)N[C@@H](CO)C(=O)NCC(=O)N[C@H](C(=O)N1CCC[C@H]1C(N)=O)[C@@H](C)O)[C@@H](C)O)[C@@H](C)O)[C@@H](C)O [CALCITONIN SALMON] | 40 | 0.003 µM | –
CCCCCC1=C(C(=O)OCC)C(c2cccc(C)c2)NC(=O)N1 (centres undefined) | 31 | – | –
CCCC1=C(C(=O)OCc2ccc(C(=O)NCCCN3CCCCC3)cc2)C(c2cccc(C)c2)NC(=O)N1 (centres undefined) | 52 | 1.9 µM | –
CCCC1=C(C(=O)OCc2ccc(C(=O)N(C)CCN3CCCCC3)cc2)C(c2cccc(C)c2)NC(=O)N1 (centres undefined) | 55 | 4.4 µM | –
CCCC1=C(C(=O)OCc2ccc(C(=O)NCCCN3CCN(C)CC3)cc2)C(c2cccc(C)c2)NC(=O)N1 (centres undefined) | 55 | 4.3 µM | –
CC1=C(C(=O)OCc2ccccc2)C(c2ccccc2)NC(=O)N1 (centres undefined) | 17 | > 20 µM | –
CCCC1=C(C(=O)OCC)C(c2cc(C)cc(C)c2)NC(=O)N1 (centres undefined) | 34 | 9.5 µM | –
CCCC1=C(C(=O)OCc2ccc(C(=O)NCCN3CCCCC3)cc2)C(c2cccc(C)c2)NC(=O)N1 (centres undefined) | 51 | 1.3 µM | bioavailability [3]: 65%; bioavailability [4]: 65%; bioavailability (monkey [5]): 13%; bioavailability (monkey [6]): 13%
CCCC1=C(C(=O)OCc2ccccc2)C(c2cccc(C)c2)NC(=O)N1 (centres undefined) | 36 | 5.2 µM | –
CC1=C(C(=O)OCC(F)(F)C(F)(F)F)C(c2ccccc2)NC(=O)N1 (centres undefined) | – | – | Fold-induction (HEK293 [7]): 5.1; Fold-induction (HEK293 [8]): inactive; Fold-induction (HEK293 [9]): 9; Fold-induction (HEK293 [10]): inactive; Fold-induction (HEK293 [11]): inactive; Fold-induction (HEK293 [12]): inactive; Fold-induction (HEK293 [13]): inactive
CCCC1=C(C(=O)OCc2ccc(C(=O)O)cc2)C(c2cccc(C)c2)NC(=O)N1 (centres undefined) | 61 | 3.4 µM | –
CCCC1=C(C(=O)OCc2ccc(C(=O)NCCCN(C)C)cc2)C(c2cccc(C)c2)NC(=O)N1 (centres undefined) | 55 | 1.4 µM | –
CCCC1=C(C(=O)OCc2ccc(C(=O)N(C)C)cc2)C(c2cccc(C)c2)NC(=O)N1 (centres undefined) | 40 | 3.4 µM | –
CCCC1=C(C(=O)OCC)C(c2cccc(Cl)c2)NC(=O)N1 (centres undefined) | 21 | 6.8 µM | –
CCCC1=C(C(=O)OCC)C(c2cccc(C)c2)NC(=O)N1 (centres undefined) | 35 | 7.5 µM | bioavailability (Rattus norvegicus): 2%; bioavailability [14]: 2%
CCC1=C([N+](=O)[O-])C(c2ccc3c(c2)OCO3)NC(=O)N1 (centres undefined) | – | – | Fold-induction (HEK293 [15]): 4.7; Fold-induction (HEK293 [8]): inactive; Fold-induction (HEK293 [9]): 12; Fold-induction (HEK293 [10]): inactive; Fold-induction (HEK293 [11]): inactive; Fold-induction (HEK293 [12]): inactive; Fold-induction (HEK293 [13]): inactive
CC1=C(C(=O)OC2CCCC2C)C(c2ccccc2)NC(=O)N1 (centres undefined) | – | – | Fold-induction (HEK293 [16]): 4.5; Fold-induction (HEK293 [8]): inactive; Fold-induction (HEK293 [9]): 8; Fold-induction (HEK293 [10]): inactive; Fold-induction (HEK293 [11]): inactive; Fold-induction (HEK293 [12]): inactive; Fold-induction (HEK293 [13]): inactive
C=CCOC(=O)C1=C(C)NC(=O)NC1c1ccc2c(c1)OCO2 (centres undefined) | – | – | Fold-induction (HEK293 [17]): 4.7; Fold-induction (HEK293 [8]): inactive; Fold-induction (HEK293 [9]): 8; Fold-induction (HEK293 [10]): inactive; Fold-induction (HEK293 [11]): inactive; Fold-induction (HEK293 [12]): inactive; Fold-induction (HEK293 [13]): inactive
CCCC1=C(C(=O)OCc2ccc(C(=O)NCCN3CCOCC3)cc2)C(c2cccc(C)c2)NC(=O)N1 (centres undefined) | 50 | 4.3 µM | –
CCCC1=C(C(=O)OCc2ccc(C(=O)OC)cc2)C(c2cccc(C)c2)NC(=O)N1 (centres undefined) | 42 | 1 µM | –
